How the values were obtained:
TNKS1 = target: T1, TNKS1 (Homo sapiens, UniProt O95271); experiment: Modified TNKS1 Assay 2 (auto-parsylation, [3H]-NAD+ SPA); format: biochemical; details: 6 nM TNKS1, 96 well
T1 sequence (O95271 1-1327): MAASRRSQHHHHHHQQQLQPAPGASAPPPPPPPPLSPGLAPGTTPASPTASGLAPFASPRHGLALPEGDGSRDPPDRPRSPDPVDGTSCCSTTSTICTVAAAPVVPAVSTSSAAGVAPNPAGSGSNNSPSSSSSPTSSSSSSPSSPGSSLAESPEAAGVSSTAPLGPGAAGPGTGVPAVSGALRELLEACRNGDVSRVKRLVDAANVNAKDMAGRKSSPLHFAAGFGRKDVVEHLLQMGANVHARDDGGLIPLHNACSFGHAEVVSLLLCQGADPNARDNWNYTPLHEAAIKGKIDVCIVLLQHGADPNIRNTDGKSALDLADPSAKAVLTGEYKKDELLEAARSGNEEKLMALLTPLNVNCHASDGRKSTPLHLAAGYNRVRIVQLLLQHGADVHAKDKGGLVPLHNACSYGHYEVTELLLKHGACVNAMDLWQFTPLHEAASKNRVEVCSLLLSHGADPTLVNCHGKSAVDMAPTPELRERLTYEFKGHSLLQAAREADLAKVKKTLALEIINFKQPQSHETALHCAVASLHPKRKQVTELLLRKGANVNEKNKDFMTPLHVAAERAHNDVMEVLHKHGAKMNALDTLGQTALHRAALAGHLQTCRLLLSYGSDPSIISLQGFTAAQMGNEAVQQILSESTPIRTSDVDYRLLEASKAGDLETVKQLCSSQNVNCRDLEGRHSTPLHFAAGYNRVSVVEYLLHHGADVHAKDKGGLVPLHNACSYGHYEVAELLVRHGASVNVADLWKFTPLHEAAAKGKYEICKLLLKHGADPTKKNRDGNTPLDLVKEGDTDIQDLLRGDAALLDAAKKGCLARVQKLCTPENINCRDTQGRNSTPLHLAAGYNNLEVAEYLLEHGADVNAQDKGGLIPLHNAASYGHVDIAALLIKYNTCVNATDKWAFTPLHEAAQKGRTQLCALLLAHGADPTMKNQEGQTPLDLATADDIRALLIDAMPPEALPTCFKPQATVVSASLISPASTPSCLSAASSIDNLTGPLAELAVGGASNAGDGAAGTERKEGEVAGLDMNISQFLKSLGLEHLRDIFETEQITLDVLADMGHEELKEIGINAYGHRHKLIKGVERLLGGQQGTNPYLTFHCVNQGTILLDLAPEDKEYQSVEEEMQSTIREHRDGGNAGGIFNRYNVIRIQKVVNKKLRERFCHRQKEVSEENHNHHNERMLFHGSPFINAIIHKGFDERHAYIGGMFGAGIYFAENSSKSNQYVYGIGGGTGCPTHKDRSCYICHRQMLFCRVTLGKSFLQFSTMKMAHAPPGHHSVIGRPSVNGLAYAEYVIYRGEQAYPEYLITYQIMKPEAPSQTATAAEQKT

[1] = tested on: wildtype Wnt signaling cascade; experiment: HEK293 TOP Assay (Super TopFlash luciferase reporter, Wnt-3a stimulated); format: cell-based; details: Homo sapiens, HEK293, 16 h, HEK293 TOP reporter cell line, Wnt-3a at EC50, 16 hours incubation, compound dilution series 50 μM to 15 nM
Method in brief: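 Compounds (50 μM down to 15 nM, 3.16-fold steps, in CAFTY buffer pH 7.4, 2 mM Ca2+, 0.01% BSA) tested in parallel on TOP and FOP HEK293 reporter lines to define selective wildtype Wnt inhibition. Pathway driven by recombinant human Wnt-3a applied at 2500–5 ng/ml in two-fold dilutions.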

Row | SMILES | IC50 (TNKS1) [nM] | IC50 [1] [nM]
1 | CNC(=O)c1nc[nH]c1C(=O)Nc1ccc(NC(=O)c2ccc(C#N)cc2)cc1 [Example 322, N^5-{4-[(4-cyanobenzoyl)amino]phenyl}-N^4-methyl-1H-imidazole-4,5-dicarboxamide] | 1000 | 2300
2 | CNC(=O)c1nc[nH]c1C(=O)Nc1ccc(NC(=O)c2ccc(Cl)cc2F)cc1 [Example 333, N^5-{4-[(4-chloro-2-fluorobenzoyl)amino]phenyl}-N^4-methyl-1H-imidazole-4,5-dicarboxamide] | 960 | 950
3 | CNC(=O)c1nc[nH]c1C(=O)Nc1ccc(NC(=O)c2ccc(Br)cc2Cl)cc1 [Example 334, N^5-{4-[(4-bromo-2-chlorobenzoyl)amino]phenyl}-N^4-methyl-1H-imidazole-4,5-dicarboxamide] | 60 | 860
4 | CNC(=O)c1nc[nH]c1C(=O)Nc1ccc(NC(=O)c2ccc(F)c(Cl)c2)cc1 [Example 340, N^5-{4-[(3-chloro-4-fluorobenzoyl)amino]phenyl}-N^4-methyl-1H-imidazole-4,5-dicarboxamide] | > 10000 | 3850
5 | CNC(=O)c1nc[nH]c1C(=O)Nc1ccc(NC(=O)c2c(F)cc(F)cc2F)cc1 [Example 342, N^4-methyl-N^5-{4-[(2,4,6-trifluorobenzoyl)amino]phenyl}-1H-imidazole-4,5-dicarboxamide] | 640 | 800
6 | CNC(=O)c1nc[nH]c1C(=O)Nc1ccc(NC(=O)c2c(C)cccc2Cl)cc1 [Example 343, N^5-{4-[(2-chloro-6-methylbenzoyl)amino]phenyl}-N^4-methyl-1H-imidazole-4,5-dicarboxamide] | 2000 | 1450
7 | CNC(=O)c1nc[nH]c1C(=O)Nc1ccc(NC(=O)c2ccc(C)c(Cl)c2)cc1 [Example 344, N^5-{4-[(3-chloro-4-methylbenzoyl)amino]phenyl}-N^4-methyl-1H-imidazole-4,5-dicarboxamide] | > 10000 | 27000
8 | CNC(=O)c1nc[nH]c1C(=O)Nc1ccc(NC(=O)c2cc(C#N)ccc2F)cc1 [Example 349, N^5-{4-[(5-cyano-2-fluorobenzoyl)amino]phenyl}-N^4-methyl-1H-imidazole-4,5-dicarboxamide] | 2700 | 720
9 | CNC(=O)c1nc[nH]c1C(=O)Nc1ccc(NC(=O)c2cc(C(F)(F)F)ccc2Cl)cc1 [Example 352, N^5-(4-{[2-chloro-5-(trifluoromethyl)benzoyl]amino}phenyl)-N^4-methyl-1H-imidazole-4,5-dicarboxamide] | 580 | 710
10 | CNC(=O)c1nc[nH]c1C(=O)Nc1ccc(NC(=O)c2cccc(Cl)n2)cc1 [Example 353, N^5-(4-{[(6-chloropyridin-2-yl)carbonyl]amino}phenyl)-N^4-methyl-1H-imidazole-4,5-dicarboxamide] | > 10000 | 50000
11 | CNC(=O)c1nc[nH]c1C(=O)Nc1ccc(NC(=O)c2ncccc2C)cc1 [Example 356, N^4-methyl-N^5-(4-{[(3-methylpyridin-2-yl)carbonyl]amino}phenyl)-1H-imidazole-4,5-dicarboxamide] | 2000 | 720
12 | CNC(=O)c1nc[nH]c1C(=O)Nc1ccc(NC(=O)c2ccc(F)c(Cl)c2F)cc1 [Example 359, N^5-{4-[(3-chloro-2,4-difluorobenzoyl)amino]phenyl}-N^4-methyl-1H-imidazole-4,5-dicarboxamide] | > 10000 | 8600
13 | CNC(=O)c1nc[nH]c1C(=O)Nc1ccc(NC(=O)c2cc(F)ccc2Cl)cc1 [Example 361, N^5-{4-[(2-chloro-5-fluorobenzoyl)amino]phenyl}-N^4-methyl-1H-imidazole-4,5-dicarboxamide] | 140 | 260
14 | CNC(=O)c1nc[nH]c1C(=O)Nc1ccc(NC(=O)c2cc(C)ccn2)cc1 [Example 363, N^4-methyl-N^5-(4-{[(4-methylpyridin-2-yl)carbonyl]amino}phenyl)-1H-imidazole-4,5-dicarboxamide] | > 10000 | 50000

Reference: patent US9884063B2, “Amido-substituted azole compounds” (Bayer Pharma Aktiengesellschaft, priority 2014, dated 2018)
